Data reported in patent US9238620B1, “Pharmaceutical uses of sulfur-containing compound” (NATIONAL SUN YAT-SEN UNIVERSITY, priority 2014, dated 2016).

Experiments:
[1] = tested on: A549 cells; test: Trans-well cell migration assay; format: cell-based, Human; details: 30 or 40 μg/mL
Description: Tumor cell migration was assayed in trans-well chambers (Millipore) according to the method reported by Huang et al. (Lai, K. C.; Huang, A. C.; Hsu, S. C.; Kuo, C. L.; Yang, J. S.; Wu, S. H.; Chung, J. G. Benzyl isothiocyanate (BITC) inhibits migration and invasion of human colon cancer HT29 cells by inhibiting matrix metalloproteinase-2/-9 and urokinase plasminogen (uPA) through PKC and MAPK signaling pathway. J. Agric. Food Chem. 2010, 58, 2935-2942), with some modifications. Briefly, trans-well chambers with 6.5 mm polycarbonate filters of […] pore size were used. A549 cells (1×10^4 cells/mL) and 20, 30 or 40 μg/mL of dihydroaustrasulfone alcohol were suspended in F-12 (100 μL, serum free), placed in the upper trans-well chamber, and incubated for 24 h at 37° C. Then, the cells on the upper surface of the filter were completely wiped away with a cotton swab, and the lower surface of the filter was fixed in methanol, stained with 10% Giemsa solution, and counted under a microscope at a magnification of 200×. For each replicate, the tumor cells in 10 randomly selected fields were determined and the counts were averaged.

[2] = Lewis lung carcinoma-bearing tumor model, body weight; format: in vivo, C57BL/6J mice; details: 8 or 16 mg/kg IP, days 8 or 14
Description: (§1) The animal experiments were approved by the Institutional Animal Care and Use Committee of China Medical University (approval ID: 102-194-C). All animal care followed the institutional animal ethical guidelines of China Medical University. C57BL/6J male mice (average 25-28 g; 6 weeks old) were obtained from the Laboratory Animal Center, College of Medicine, National Taiwan University (Taipei, Taiwan). The C57BL/6J mice were kept on a 12 h light/dark cycle at 25° C. C57BL/6J mice were subcutaneously implanted with LLC cells (7×10^5 cells in 100 μL). The treatment of dihydroaustrasulfone alcohol start while all the tumors volume were larger than 100 mm^3. Eighteen mice were randomly assigned to three treatment groups (6 animals per group). Group I (untreated group) was subcutaneously grafted with LLC cells and given vehicle solvent. Group II was grafted with LLC cells and then treated with dihydroaustrasulfone alcohol (8 mg/kg). Group III was grafted with LLC cells and then treated with dihydroaustrasulfone alcohol (16 mg/kg). The dihydroaustrasulfone alcohol was diluted in normal saline and administered by IP. Body weight and tumor volume were measured every week after cell injection. The tumor width (W) and length (L) were measured every week by calipers, and the tumor volume was calculated as L×W2×0.52. The mice were treated daily for 2 weeks and then sacrificed.

[3] = tested on: PI3K; test: Western blotting in A549 cells, PI3K protein level; format: cell-based, Human; details: A549 cells, 20, 30, or 40 μg/mL, 24 h
Description: (§2) A549 cells were plated in 10-cm dishes at a density of 3×10^6 cells per dish and incubated with 20, 30 or 40 μg/mL dihydroaustrasulfone alcohol in F-12 containing 1% (v/v) FBS for 24 h. The cells were collected, lysed in a lysis solution, and then incubated at 25° C. for 10 min. Total proteins were separated with SDS-PAGE before being transferred to PVDF membranes. The membranes were blocked with 5% (v/v) nonfat dry milk in PBS-Tween 20 for one hour and changed to an appropriate dilution of specific primary antibodies in TBS-T buffer overnight at 4° C. The blots were then incubated with horseradish peroxidase-linked secondary antibody for 1 h and then developed with the […] (ECL) reagent and exposed to Hyperfilm (Amersham, Arlington Height, Ill., USA). The data were analyzed by Gel-Logic 200 Imaging Systems, Molecular Imaging Software.

[4] = tested on: AKT; test: Western blotting in A549 cells, AKT phosphorylation; format: cell-based, Human; details: A549 cells, 20, 30, or 40 μg/mL, 24 h
Description: as §2

[5] = tested on: A549 cells; test: MTT cell proliferation (cytotoxicity) assay; format: cell-based, Human
Description: The MTT assay was performed in the A549 cell lines to measure the cytotoxicity of dihydroaustrasulfone alcohol. All cell lines were seeded in 96-well plates with 2×10^4 cells/well in culture medium. Dihydroaustrasulfone alcohol was dissolved in PBS. The cells were treated with various concentrations of dihydroaustrasulfone alcohol as indicated in each figure. After 24 h, the number of viable cells was determined. Then, 5 mg/mL MTT was added to each well, and the plate was incubated at 37° C. for 3 h. The medium was removed, and 50 μL DMSO was added. The absorbance at 590 nm was measured for each well on an ELISA reader. The data are presented as the mean±SEM of three independent experiments.

[6] = tested on: ERK1/2; test: Western blotting in A549 cells, ERK1/2 phosphorylation; format: cell-based, Human; details: A549 cells, 20, 30, or 40 μg/mL, 24 h
Description: as §2

[7] = tested on: FAK; test: Western blotting in A549 cells, FAK phosphorylation; format: cell-based, Human; details: A549 cells, 20, 30, or 40 μg/mL, 24 h
Description: as §2

[8] = tested on: A549 cells; test: Flow cytometry analysis of cell cycle and apoptosis (sub-G1); format: cell-based, Human; details: 20 and 40 μg/mL, treatment for 24 h
Description: A549 cells (2×10^5) were seeded into each well of a 12-well plate (TPP; Techno Plastic Products AG, Trasadingen, Switzerland) 24 h before being treated with various concentrations of dihydroaustrasulfone alcohol for 24 h. The cells were harvested with trypsin-EDTA, washed twice with 10 mL ice-cold PBS, fixed in 70% (v/v) ethanol, and kept at 4° C. The cells were then stained with propidium iodide (PI) [100 μg/mL PI, 0.2% (v/v) Nonidet P-40, and 1 mg/mL RNase A (DNase-free) in PBS lacking Ca^2+ and Mg^2+ at a 1:1:1 ratio by volume] and the DNA contents were analyzed with flow cytometry (Becton Dickinson, San Jose, Calif., USA). The intensity of PI fluorescence was linearly amplified, and both the area and width of the fluorescence pulse were measured. Ten thousand events were acquired, and the percentage of hypodiploid (apoptosis, sub-G1) events and the percentages of cells in the G0/G1, S and G2/M phases were determined using the DNA analysis software ModFitL T, version 2.0 (Verity Software, Topsham, Me., USA).

[9] = tested on: MMP-9; test: Gelatin zymography of A549 conditioned medium, MMP-9; format: cell-based, Human; details: A549 cells, 20, 30, or 40 μg/mL, 24 h
Description: (§3) Phytomedicine 2012, 19, 768-778). Briefly, the culture medium was electrophoresed (80 V for 120 min) in an 8% SDS-PAGE gel containing 0.1% gelatin. The gel was then washed at room temperature in a solution containing 2.5% (v/v) Triton X-100 with two changes and subsequently transferred to a reaction buffer for enzymatic reaction containing 1% NaN3; 10 mM CaCl2; and 40 mM Tris-HCl, pH 8.0; at 37° C. with shaking overnight (for 12-15 h). Finally, the MMP gel was stained for […] with 0.25% (w/v) Coomassie blue in 10% acetic acid (v/v) and 20% methanol (v/v) and destained in 10% acetic acid (v/v) and 20% methanol (v/v).

[10] = tested on: JNK1/2; test: Western blotting in A549 cells, JNK1/2 phosphorylation; format: cell-based, Human; details: A549 cells, 20, 30, or 40 μg/mL, 24 h
Description: as §2

[11] = tested on: Lewis lung carcinoma (LLC); test: Lewis lung carcinoma-bearing tumor model, tumor size; format: in vivo, C57BL/6J mice; details: 8 or 16 mg/kg IP daily, 14-day treatment
Description: as §1

[12] = tested on: MMP-2; test: Gelatin zymography of A549 conditioned medium, MMP-2; format: cell-based, Human; details: A549 cells, 20, 30, or 40 μg/mL, 24 h
Description: as §3

[13] = tested on: A549 cells; test: Wound healing assay; format: cell-based, Human; details: 30 and 40 μg/mL, 18 h
Description: For cell motility determination, A549 cells (2×10^5 cells/mL) were seeded in a 12-well tissue culture plate. After one day, the center of the cell monolayers was scraped with a sterile micropipette tip to create a straight zone (gap) of constant width. Then, each well was washed with PBS, and A549 cells were exposed to various concentrations of dihydroaustrasulfone alcohol (20, 30 or 40 μg/mL). Wound closure was monitored and photographed at 0 h and 18 h with a Nikon inverted microscope. To quantify the migrated cells, pictures of the initial wounded monolayers were compared with the corresponding pictures of cells at the end of the incubation. Artificial lines fitting the cutting edges were drawn on pictures of the original wounds and overlaid on the pictures of cultures after incubation. Cells that had migrated across the white lines were counted in six random fields from each triplicate treatment.

## CC(=O)CCS(=O)(=O)CCO [dihydroaustrasulfone alcohol]
[1]
  migration of A549 cells (trans-well): significantly decreased
[2]
  body weights compared with the LLC control group: not significantly different
[3]
  protein levels of PI3K: inhibited the protein levels of PI3K in a dose-dependent manner
[4]
  phosphorylation of AKT: decrease in the phosphorylation
[5]; 60, 80, and 100 μg/mL, 24 h
  cell viability: significantly suppressed
[5]; Homo sapiens, A549, 24 h, read-out: IC50, viability of A549 cells
  IC50: 273 µM
[6]
  phosphorylation of ERK1/2: inhibited
[7]
  phosphorylation of FAK: reduced phosphorylation of FAK
[8]
  apoptosis in the sub-G1 phase: no effect
[9]
  activity of MMP-9: significantly inhibited
[10]
  phosphorylation of JNK1/2: inhibited
[11]
  tumor size compared with the LLC control group: significantly reduced
[12]
  activity of MMP-2: significantly inhibited
[13]
  migration of A549 cells (wound healing): significantly decreased
